# Reference: patent EP4722207A1, “OXOISOINDOLINYL-SUBSTITUTED TETRAHYDROPYRIMIDINEDIONE DERIVATIVE AND USE THEREOF” (Gluetacs Therapeutics (Shanghai) Co., Ltd., priority 2023, dated 2024)
# Tests used:
# Assay type in all cases: cell-based
# Settings in all cases: compounds at 50 nM and 500 nM, 24 hours
# WEE1 = biological target: T1, WEE1 (Homo sapiens, UniProt P30291+Q96SW2); experiment: Western-blot assay, substrate protein degradation in hPBMCs: WEE1
# T1 construct: effects of the compounds of the present disclosure on the expression of target proteins in cells; endogenous in cells; host or cells: human PBMCs (hPBMCs)
# IKZF1 = biological target: T2, IKZF1 (Homo sapiens, UniProt Q13422+Q96SW2); experiment: Western-blot assay, substrate protein degradation in hPBMCs: IKZF1
# T2 construct: effects of the compounds of the present disclosure on the expression of target proteins in cells; endogenous in cells; host or cells: human PBMCs (hPBMCs)
# IKZF2 = biological target: T3, IKZF2 (Homo sapiens, UniProt Q96SW2+Q9UKS7); experiment: Western-blot assay, substrate protein degradation in hPBMCs: IKZF2
# T3 construct: effects of the compounds of the present disclosure on the expression of target proteins in cells; endogenous in cells; host or cells: human PBMCs (hPBMCs)
# IKZF3 = biological target: T4, IKZF3 (Homo sapiens, UniProt Q96SW2+Q9UKT9); experiment: Western-blot assay, substrate protein degradation in hPBMCs: IKZF3
# T4 construct: effects of the compounds of the present disclosure on the expression of target proteins in cells; endogenous in cells; host or cells: human PBMCs (hPBMCs)
# CK1α = biological target: T5, CK1α (Homo sapiens, UniProt P48729+Q96SW2); experiment: Western-blot assay, substrate protein degradation in hPBMCs: CK1α
# T5 construct: effects of the compounds of the present disclosure on the expression of target proteins in cells; endogenous in cells; host or cells: human PBMCs (hPBMCs)
# GSPT1 = biological target: T6, GSPT1 (Homo sapiens, UniProt P15170+Q96SW2); experiment: Western-blot assay, substrate protein degradation in hPBMCs: GSPT1
# T6 construct: effects of the compounds of the present disclosure on the expression of target proteins in cells; endogenous in cells; host or cells: human PBMCs (hPBMCs)
# T6 sequence (P15170 whole entry): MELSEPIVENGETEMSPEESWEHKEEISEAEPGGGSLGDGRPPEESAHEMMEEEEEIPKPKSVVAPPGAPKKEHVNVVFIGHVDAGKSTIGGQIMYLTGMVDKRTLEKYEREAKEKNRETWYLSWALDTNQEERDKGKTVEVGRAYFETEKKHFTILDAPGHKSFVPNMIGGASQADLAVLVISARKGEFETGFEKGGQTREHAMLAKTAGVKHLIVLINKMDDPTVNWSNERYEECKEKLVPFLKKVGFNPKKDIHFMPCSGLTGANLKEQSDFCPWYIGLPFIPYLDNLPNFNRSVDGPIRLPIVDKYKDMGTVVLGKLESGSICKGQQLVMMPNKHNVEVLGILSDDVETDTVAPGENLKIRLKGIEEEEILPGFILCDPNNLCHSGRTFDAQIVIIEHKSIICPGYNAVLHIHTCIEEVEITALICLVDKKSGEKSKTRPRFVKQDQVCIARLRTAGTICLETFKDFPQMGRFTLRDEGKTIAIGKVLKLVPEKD
# T6 sequence (Q96SW2 whole entry): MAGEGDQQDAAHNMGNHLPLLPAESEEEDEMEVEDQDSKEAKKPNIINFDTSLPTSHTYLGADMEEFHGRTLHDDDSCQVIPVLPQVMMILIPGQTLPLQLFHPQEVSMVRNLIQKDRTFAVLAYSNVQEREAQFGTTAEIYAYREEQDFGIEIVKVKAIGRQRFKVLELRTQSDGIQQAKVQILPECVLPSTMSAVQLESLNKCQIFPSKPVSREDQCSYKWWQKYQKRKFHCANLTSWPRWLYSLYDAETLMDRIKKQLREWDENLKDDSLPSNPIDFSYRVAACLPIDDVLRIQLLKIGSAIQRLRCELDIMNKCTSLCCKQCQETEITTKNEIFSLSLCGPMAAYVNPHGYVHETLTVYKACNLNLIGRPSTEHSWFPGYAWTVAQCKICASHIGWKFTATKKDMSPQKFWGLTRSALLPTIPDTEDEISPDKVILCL
# T6 sequence (Q16531 whole entry partner): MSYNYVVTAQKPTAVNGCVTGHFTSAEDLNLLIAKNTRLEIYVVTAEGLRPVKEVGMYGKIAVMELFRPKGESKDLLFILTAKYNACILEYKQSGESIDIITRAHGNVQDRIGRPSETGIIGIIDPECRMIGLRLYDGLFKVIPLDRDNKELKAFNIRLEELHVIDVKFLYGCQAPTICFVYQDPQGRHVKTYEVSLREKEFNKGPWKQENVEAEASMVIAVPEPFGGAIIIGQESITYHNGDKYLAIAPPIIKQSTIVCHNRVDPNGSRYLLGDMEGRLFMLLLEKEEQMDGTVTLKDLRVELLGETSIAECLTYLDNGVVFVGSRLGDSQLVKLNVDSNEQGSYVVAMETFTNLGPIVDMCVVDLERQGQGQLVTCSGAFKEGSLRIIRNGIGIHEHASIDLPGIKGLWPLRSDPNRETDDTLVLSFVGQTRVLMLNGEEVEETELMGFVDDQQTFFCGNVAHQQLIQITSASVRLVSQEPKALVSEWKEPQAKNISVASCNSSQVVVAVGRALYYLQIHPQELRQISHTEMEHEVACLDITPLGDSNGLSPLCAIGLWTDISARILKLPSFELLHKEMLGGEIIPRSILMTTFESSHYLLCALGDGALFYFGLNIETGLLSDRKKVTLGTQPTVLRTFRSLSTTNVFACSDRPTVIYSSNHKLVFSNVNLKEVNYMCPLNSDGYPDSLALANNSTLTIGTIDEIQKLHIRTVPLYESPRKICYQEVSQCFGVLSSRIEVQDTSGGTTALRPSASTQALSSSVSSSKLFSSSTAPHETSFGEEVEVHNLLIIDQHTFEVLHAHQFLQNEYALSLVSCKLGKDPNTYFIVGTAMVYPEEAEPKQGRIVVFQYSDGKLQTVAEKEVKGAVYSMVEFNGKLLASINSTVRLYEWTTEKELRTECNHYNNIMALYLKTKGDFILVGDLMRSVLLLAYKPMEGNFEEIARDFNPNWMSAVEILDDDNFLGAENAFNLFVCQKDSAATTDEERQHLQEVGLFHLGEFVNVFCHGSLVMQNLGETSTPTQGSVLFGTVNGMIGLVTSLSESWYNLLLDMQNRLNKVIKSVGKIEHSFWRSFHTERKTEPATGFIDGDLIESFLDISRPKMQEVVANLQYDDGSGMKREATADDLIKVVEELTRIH
# T3 sequence (Q9UKS7 whole entry): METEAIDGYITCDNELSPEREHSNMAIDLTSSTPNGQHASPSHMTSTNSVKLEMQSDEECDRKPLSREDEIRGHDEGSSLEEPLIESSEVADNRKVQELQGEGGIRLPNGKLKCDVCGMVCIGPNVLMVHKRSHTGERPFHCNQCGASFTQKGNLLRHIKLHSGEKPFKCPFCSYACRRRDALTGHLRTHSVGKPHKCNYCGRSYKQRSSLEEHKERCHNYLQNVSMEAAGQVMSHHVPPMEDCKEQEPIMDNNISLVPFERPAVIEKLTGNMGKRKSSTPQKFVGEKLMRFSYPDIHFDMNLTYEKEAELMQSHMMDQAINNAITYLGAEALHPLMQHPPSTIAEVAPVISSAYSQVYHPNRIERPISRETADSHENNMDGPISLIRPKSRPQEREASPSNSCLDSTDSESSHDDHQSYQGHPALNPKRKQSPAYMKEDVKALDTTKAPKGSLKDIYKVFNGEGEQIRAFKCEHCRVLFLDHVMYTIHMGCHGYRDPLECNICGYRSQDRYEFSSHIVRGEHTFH
# T3 sequence (Q96SW2 whole entry): as the sequence (Q96SW2 whole entry) above
# T3 sequence (Q16531 whole entry partner): as the sequence (Q16531 whole entry partner) above
# T2 sequence (Q13422 whole entry): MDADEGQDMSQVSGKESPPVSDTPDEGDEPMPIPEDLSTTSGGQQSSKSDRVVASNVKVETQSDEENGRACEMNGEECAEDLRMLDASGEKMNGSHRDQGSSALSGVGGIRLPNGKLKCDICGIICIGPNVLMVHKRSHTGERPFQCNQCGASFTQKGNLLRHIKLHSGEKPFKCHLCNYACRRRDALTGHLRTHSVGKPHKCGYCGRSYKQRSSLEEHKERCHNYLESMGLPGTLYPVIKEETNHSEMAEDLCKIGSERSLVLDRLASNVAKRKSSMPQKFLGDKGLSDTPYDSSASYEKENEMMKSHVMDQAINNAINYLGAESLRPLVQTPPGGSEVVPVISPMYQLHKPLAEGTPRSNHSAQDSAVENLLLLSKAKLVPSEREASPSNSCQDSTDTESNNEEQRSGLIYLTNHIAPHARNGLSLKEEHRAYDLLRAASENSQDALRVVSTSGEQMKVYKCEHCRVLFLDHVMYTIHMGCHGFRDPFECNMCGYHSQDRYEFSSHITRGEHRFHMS
# T2 sequence (Q96SW2 whole entry): as the sequence (Q96SW2 whole entry) above
# T2 sequence (Q16531 whole entry partner): as the sequence (Q16531 whole entry partner) above
# T5 sequence (P48729 whole entry): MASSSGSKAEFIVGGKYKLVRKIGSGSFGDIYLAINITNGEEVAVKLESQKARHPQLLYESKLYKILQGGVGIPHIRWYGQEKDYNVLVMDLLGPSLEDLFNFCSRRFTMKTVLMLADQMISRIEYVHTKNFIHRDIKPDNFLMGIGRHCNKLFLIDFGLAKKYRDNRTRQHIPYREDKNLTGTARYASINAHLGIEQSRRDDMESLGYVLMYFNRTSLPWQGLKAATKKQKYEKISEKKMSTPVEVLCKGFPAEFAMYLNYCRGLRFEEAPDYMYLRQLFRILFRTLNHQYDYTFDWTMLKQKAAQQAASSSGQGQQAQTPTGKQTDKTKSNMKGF
# T5 sequence (Q96SW2 whole entry): as the sequence (Q96SW2 whole entry) above
# T5 sequence (Q16531 whole entry partner): as the sequence (Q16531 whole entry partner) above
# T1 sequence (P30291 whole entry): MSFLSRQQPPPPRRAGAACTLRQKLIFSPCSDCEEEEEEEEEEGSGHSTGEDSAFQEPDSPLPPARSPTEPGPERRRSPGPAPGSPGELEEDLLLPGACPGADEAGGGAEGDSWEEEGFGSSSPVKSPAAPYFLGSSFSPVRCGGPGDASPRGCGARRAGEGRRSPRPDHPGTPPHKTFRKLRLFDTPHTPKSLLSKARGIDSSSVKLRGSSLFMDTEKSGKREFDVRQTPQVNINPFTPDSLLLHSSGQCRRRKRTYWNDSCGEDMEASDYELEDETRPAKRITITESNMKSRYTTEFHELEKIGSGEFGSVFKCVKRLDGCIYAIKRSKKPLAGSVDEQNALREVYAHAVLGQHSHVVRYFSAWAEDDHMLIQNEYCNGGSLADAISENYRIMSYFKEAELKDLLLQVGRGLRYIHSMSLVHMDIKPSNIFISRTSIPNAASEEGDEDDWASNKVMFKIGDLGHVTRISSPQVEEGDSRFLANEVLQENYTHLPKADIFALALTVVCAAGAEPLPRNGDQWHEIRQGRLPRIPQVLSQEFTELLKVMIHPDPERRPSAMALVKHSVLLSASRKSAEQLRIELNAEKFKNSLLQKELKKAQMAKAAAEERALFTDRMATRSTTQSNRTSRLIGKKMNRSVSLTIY
# T1 sequence (Q96SW2 whole entry): as the sequence (Q96SW2 whole entry) above
# T1 sequence (Q16531 whole entry partner): as the sequence (Q16531 whole entry partner) above
structure (smiles),measurement,setting,value
"O=C1CCN(N2C(=O)c3ccc(CN4CCn5c(nnc5C(F)(F)F)C4)cc3C2=O)C(=O)N1 [GT-05253, 2-(2,4-dioxotetrahydropyrimidin-1(2H)-yl)-5-((3-(trifluoromethyl)-5,6-dihydro-[1,2,4]triazolo[4,3-a]pyrazin-7(8H)-yl)methyl)isoindoline-1,3-dione]",WEE1 substrate protein remaining %,WEE1,"B (""B"" is defined as 80%< substrate protein remaining %≤ 100%)"
same,IKZF1 substrate protein remaining %,IKZF1,"B (""B"" is defined as 80%< substrate protein remaining %≤ 100%)"
same,IKZF2 substrate protein remaining %,IKZF2,"B (""B"" is defined as 80%< substrate protein remaining %≤ 100%)"
same,IKZF3 substrate protein remaining %,IKZF3,"B (""B"" is defined as 80%< substrate protein remaining %≤ 100%)"
same,CK1α substrate protein remaining %,CK1α,"B (""B"" is defined as 80%< substrate protein remaining %≤ 100%)"
same,GSPT1 substrate protein remaining %,GSPT1,"A (""A"" is defined as 0% ≤ substrate protein remaining % ≤ 80%)"
"O=C1CCN(N2C(=O)c3ccc(CN4CCc5sccc5C4)cc3C2=O)C(=O)N1 [GT-05254, 5-((6,7-dihydrothieno[3,2-c]pyridin-5(4H)-yl)methyl)-2-(2,4-dioxotetrahydropyrimidin-1(2H)-yl)isoindoline-1,3-dione]",WEE1 substrate protein remaining %,WEE1,"B (""B"" is defined as 80%< substrate protein remaining %≤ 100%)"
same,IKZF1 substrate protein remaining %,IKZF1,"B (""B"" is defined as 80%< substrate protein remaining %≤ 100%)"
same,IKZF2 substrate protein remaining %,IKZF2,"B (""B"" is defined as 80%< substrate protein remaining %≤ 100%)"
same,IKZF3 substrate protein remaining %,IKZF3,"B (""B"" is defined as 80%< substrate protein remaining %≤ 100%)"
same,CK1α substrate protein remaining %,CK1α,"B (""B"" is defined as 80%< substrate protein remaining %≤ 100%)"
same,GSPT1 substrate protein remaining %,GSPT1,"A (""A"" is defined as 0% ≤ substrate protein remaining % ≤ 80%)"
"O=C1CCN(N2C(=O)c3ccc(CN4CCC(c5c[nH]c6cc(F)ccc56)CC4)cc3C2=O)C(=O)N1 [GT-05259, 2-(2,4-dioxotetrahydropyrimidin-1(2H)-yl)-5-((4-(6-fluoro-1H-indol-3-yl)piperidin-1-yl)methyl)isoindoline-1,3-dione]",WEE1 substrate protein remaining %,WEE1,"B (""B"" is defined as 80%< substrate protein remaining %≤ 100%)"
same,IKZF1 substrate protein remaining %,IKZF1,"A (""A"" is defined as 0% ≤ substrate protein remaining % ≤ 80%)"
same,IKZF2 substrate protein remaining %,IKZF2,"A (""A"" is defined as 0% ≤ substrate protein remaining % ≤ 80%)"
same,IKZF3 substrate protein remaining %,IKZF3,"B (""B"" is defined as 80%< substrate protein remaining %≤ 100%)"
same,CK1α substrate protein remaining %,CK1α,"B (""B"" is defined as 80%< substrate protein remaining %≤ 100%)"
same,GSPT1 substrate protein remaining %,GSPT1,"A (""A"" is defined as 0% ≤ substrate protein remaining % ≤ 80%)"
"O=C1CCN(N2C(=O)c3ccc(CN4CCC(N5CCc6cc(F)ccc65)CC4)cc3C2=O)C(=O)N1 [GT-05260, 2-(2,4-dioxotetrahydropyrimidin-1(2H)-yl)-5-((4-(5-fluoroindolin-1-yl)piperidin-1-yl)methyl)isoindoline-1,3-dione]",WEE1 substrate protein remaining %,WEE1,"A (""A"" is defined as 0% ≤ substrate protein remaining % ≤ 80%)"
same,IKZF1 substrate protein remaining %,IKZF1,"A (""A"" is defined as 0% ≤ substrate protein remaining % ≤ 80%)"
same,IKZF2 substrate protein remaining %,IKZF2,"A (""A"" is defined as 0% ≤ substrate protein remaining % ≤ 80%)"
same,IKZF3 substrate protein remaining %,IKZF3,"B (""B"" is defined as 80%< substrate protein remaining %≤ 100%)"
same,CK1α substrate protein remaining %,CK1α,"B (""B"" is defined as 80%< substrate protein remaining %≤ 100%)"
same,GSPT1 substrate protein remaining %,GSPT1,"B (""B"" is defined as 80%< substrate protein remaining %≤ 100%)"
"O=C1CCN(N2C(=O)c3ccc(CN4CC=C(c5ccnc6cc(F)ccc56)CC4)cc3C2=O)C(=O)N1 [GT-05261, 2-(2,4-dioxotetrahydropyrimidin-1(2H)-yl)-5-((4-(7-fluoroquinolin-4-yl)-3,6-dihydropyridin-1(2H)-yl)methyl)isoindoline-1,3-dione]",WEE1 substrate protein remaining %,WEE1,"B (""B"" is defined as 80%< substrate protein remaining %≤ 100%)"
same,IKZF1 substrate protein remaining %,IKZF1,"B (""B"" is defined as 80%< substrate protein remaining %≤ 100%)"
same,IKZF2 substrate protein remaining %,IKZF2,"A (""A"" is defined as 0% ≤ substrate protein remaining % ≤ 80%)"
same,IKZF3 substrate protein remaining %,IKZF3,"B (""B"" is defined as 80%< substrate protein remaining %≤ 100%)"
same,CK1α substrate protein remaining %,CK1α,"B (""B"" is defined as 80%< substrate protein remaining %≤ 100%)"
same,GSPT1 substrate protein remaining %,GSPT1,"B (""B"" is defined as 80%< substrate protein remaining %≤ 100%)"
"O=C1CCN(N2C(=O)c3ccc(CN4CCN(C(c5ccccc5)c5ccccc5)CC4)cc3C2=O)C(=O)N1 [GT-05267, 5-((4-benzhydrylpiperazin-1-yl)methyl)-2-(2,4-dioxotetrahydropyrimidin-1(2H)-yl)isoindoline-1,3-dione]",WEE1 substrate protein remaining %,WEE1,"B (""B"" is defined as 80%< substrate protein remaining %≤ 100%)"
same,IKZF1 substrate protein remaining %,IKZF1,"B (""B"" is defined as 80%< substrate protein remaining %≤ 100%)"
same,IKZF2 substrate protein remaining %,IKZF2,"B (""B"" is defined as 80%< substrate protein remaining %≤ 100%)"
same,IKZF3 substrate protein remaining %,IKZF3,"A (""A"" is defined as 0% ≤ substrate protein remaining % ≤ 80%)"
same,CK1α substrate protein remaining %,CK1α,"A (""A"" is defined as 0% ≤ substrate protein remaining % ≤ 80%)"
same,GSPT1 substrate protein remaining %,GSPT1,"A (""A"" is defined as 0% ≤ substrate protein remaining % ≤ 80%)"
"O=C1CCN(N2C(=O)c3ccc(CN4CCN(C(c5ccc(F)cc5)c5ccc(F)cc5)CC4)cc3C2=O)C(=O)N1 [GT-05268, 5-((4-(bis(4-fluorophenyl)methyl)piperazin-1-yl)methyl)-2-(2,4-dioxotetrahydropyrimidin-1(2H)-yl)isoindoline-1,3-dione]",WEE1 substrate protein remaining %,WEE1,"B (""B"" is defined as 80%< substrate protein remaining %≤ 100%)"
same,IKZF1 substrate protein remaining %,IKZF1,"B (""B"" is defined as 80%< substrate protein remaining %≤ 100%)"
same,IKZF2 substrate protein remaining %,IKZF2,"B (""B"" is defined as 80%< substrate protein remaining %≤ 100%)"
same,IKZF3 substrate protein remaining %,IKZF3,"A (""A"" is defined as 0% ≤ substrate protein remaining % ≤ 80%)"
same,CK1α substrate protein remaining %,CK1α,"A (""A"" is defined as 0% ≤ substrate protein remaining % ≤ 80%)"
same,GSPT1 substrate protein remaining %,GSPT1,"A (""A"" is defined as 0% ≤ substrate protein remaining % ≤ 80%)"
"O=C1CCN(N2C(=O)c3ccc(CN4CCN(C(c5ccc(Cl)cc5)c5ccc(Cl)cc5)CC4)cc3C2=O)C(=O)N1 [GT-05269, 5-((4-(bis(4-chlorophenyl)methyl)piperazin-1-yl)methyl)-2-(2,4-dioxotetrahydropyrimidin-1(2H)-yl)isoindoline-1,3-dione]",WEE1 substrate protein remaining %,WEE1,"B (""B"" is defined as 80%< substrate protein remaining %≤ 100%)"
same,IKZF1 substrate protein remaining %,IKZF1,"B (""B"" is defined as 80%< substrate protein remaining %≤ 100%)"
same,IKZF2 substrate protein remaining %,IKZF2,"B (""B"" is defined as 80%< substrate protein remaining %≤ 100%)"
same,IKZF3 substrate protein remaining %,IKZF3,"B (""B"" is defined as 80%< substrate protein remaining %≤ 100%)"
same,CK1α substrate protein remaining %,CK1α,"A (""A"" is defined as 0% ≤ substrate protein remaining % ≤ 80%)"
same,GSPT1 substrate protein remaining %,GSPT1,"A (""A"" is defined as 0% ≤ substrate protein remaining % ≤ 80%)"
"Cc1nc(C2CCN(Cc3ccc4c(c3)C(=O)N(N3CCC(=O)NC3=O)C4=O)CC2)c2ccsc2n1 [GT-05272, 2-(2,4-dioxotetrahydropyrimidin-1(2H)-yl)-5-((4-(2-methylthieno[2,3-d]pyrimidin-4-yl)piperidin-1-yl)methyl)isoindoline-1,3-dione]",WEE1 substrate protein remaining %,WEE1,"B (""B"" is defined as 80%< substrate protein remaining %≤ 100%)"
same,IKZF1 substrate protein remaining %,IKZF1,"B (""B"" is defined as 80%< substrate protein remaining %≤ 100%)"
same,IKZF2 substrate protein remaining %,IKZF2,"A (""A"" is defined as 0% ≤ substrate protein remaining % ≤ 80%)"
same,IKZF3 substrate protein remaining %,IKZF3,"B (""B"" is defined as 80%< substrate protein remaining %≤ 100%)"
same,CK1α substrate protein remaining %,CK1α,"B (""B"" is defined as 80%< substrate protein remaining %≤ 100%)"
same,GSPT1 substrate protein remaining %,GSPT1,"B (""B"" is defined as 80%< substrate protein remaining %≤ 100%)"
"Cc1sc2ncnc(C3=CCN(Cc4ccc5c(c4)C(=O)N(N4CCC(=O)NC4=O)C5=O)CC3)c2c1C [GT-05273, 5-((4-(5,6-dimethylthieno[2,3-d]pyrimidin-4-yl)-3,6-dihydropyridin-1(2H)-yl)methyl)-2-(2,4-dioxotetrahydropyrimidin-1(2H)-yl)isoindoline-1,3-dione]",WEE1 substrate protein remaining %,WEE1,"B (""B"" is defined as 80%< substrate protein remaining %≤ 100%)"
same,IKZF1 substrate protein remaining %,IKZF1,"B (""B"" is defined as 80%< substrate protein remaining %≤ 100%)"
same,IKZF2 substrate protein remaining %,IKZF2,"A (""A"" is defined as 0% ≤ substrate protein remaining % ≤ 80%)"
same,IKZF3 substrate protein remaining %,IKZF3,"B (""B"" is defined as 80%< substrate protein remaining %≤ 100%)"
same,CK1α substrate protein remaining %,CK1α,"B (""B"" is defined as 80%< substrate protein remaining %≤ 100%)"
same,GSPT1 substrate protein remaining %,GSPT1,"B (""B"" is defined as 80%< substrate protein remaining %≤ 100%)"
"Cn1cc(C2=CCN(Cc3ccc4c(c3)C(=O)N(N3CCC(=O)NC3=O)C4=O)CC2)c2ccc(F)cc21 [GT-05276, 2-(2,4-dioxotetrahydropyrimidin-1(2H)-yl)-5-((4-(6-fluoro-1-methyl-1H-indol-3-yl)-3,6-dihydropyridin-1(2H)-yl)methyl)isoindoline-1,3-dione]",WEE1 substrate protein remaining %,WEE1,"B (""B"" is defined as 80%< substrate protein remaining %≤ 100%)"
same,IKZF1 substrate protein remaining %,IKZF1,"B (""B"" is defined as 80%< substrate protein remaining %≤ 100%)"
same,IKZF2 substrate protein remaining %,IKZF2,"B (""B"" is defined as 80%< substrate protein remaining %≤ 100%)"
same,IKZF3 substrate protein remaining %,IKZF3,"A (""A"" is defined as 0% ≤ substrate protein remaining % ≤ 80%)"
same,CK1α substrate protein remaining %,CK1α,"B (""B"" is defined as 80%< substrate protein remaining %≤ 100%)"
same,GSPT1 substrate protein remaining %,GSPT1,"A (""A"" is defined as 0% ≤ substrate protein remaining % ≤ 80%)"
